Experimental data as given in ChEMBL document CHEMBL5727622, “Heterocyclic compounds used as FGFR inhibitors” (2020).

What was measured:
[1] = molecular target: Fibroblast growth factor receptor 4 (Homo sapiens, UniProt P22455); assay: Inhibition Assay: FGFR4:The in vitro activity of FGFR4 was determined by assaying the phosphorylation level of the substrate in the kinase reaction, by means of an HTRF kinase assay kit. The reaction buffer comprised the following components: 5-fold diluted Enzymatic buffer/kinase 5×(main ingredient: 50 mM HEPES, pH 7.0), 5 mM MgCl2, 1 mM DTT; the human recombinant FGFR4 catalytic structural domain protein (amino acids 460-802), diluted with the reaction buffer to a 0.5 ng/μL kinase solution; the substrate reaction solution comprised a biotin labeled tyrosine kinase substrate diluted with the reaction buffer to 500 nM , and 90 μM ATP, and the assay solution comprised an Eu3+ labeled cage-shaped antibody diluted with the assay buffer to 0.125 ng/μL, and 31.25 nM streptavidin labeled XL665).
Chain of Fibroblast growth factor receptor 4 (P22455 whole entry, the tested form may be a part): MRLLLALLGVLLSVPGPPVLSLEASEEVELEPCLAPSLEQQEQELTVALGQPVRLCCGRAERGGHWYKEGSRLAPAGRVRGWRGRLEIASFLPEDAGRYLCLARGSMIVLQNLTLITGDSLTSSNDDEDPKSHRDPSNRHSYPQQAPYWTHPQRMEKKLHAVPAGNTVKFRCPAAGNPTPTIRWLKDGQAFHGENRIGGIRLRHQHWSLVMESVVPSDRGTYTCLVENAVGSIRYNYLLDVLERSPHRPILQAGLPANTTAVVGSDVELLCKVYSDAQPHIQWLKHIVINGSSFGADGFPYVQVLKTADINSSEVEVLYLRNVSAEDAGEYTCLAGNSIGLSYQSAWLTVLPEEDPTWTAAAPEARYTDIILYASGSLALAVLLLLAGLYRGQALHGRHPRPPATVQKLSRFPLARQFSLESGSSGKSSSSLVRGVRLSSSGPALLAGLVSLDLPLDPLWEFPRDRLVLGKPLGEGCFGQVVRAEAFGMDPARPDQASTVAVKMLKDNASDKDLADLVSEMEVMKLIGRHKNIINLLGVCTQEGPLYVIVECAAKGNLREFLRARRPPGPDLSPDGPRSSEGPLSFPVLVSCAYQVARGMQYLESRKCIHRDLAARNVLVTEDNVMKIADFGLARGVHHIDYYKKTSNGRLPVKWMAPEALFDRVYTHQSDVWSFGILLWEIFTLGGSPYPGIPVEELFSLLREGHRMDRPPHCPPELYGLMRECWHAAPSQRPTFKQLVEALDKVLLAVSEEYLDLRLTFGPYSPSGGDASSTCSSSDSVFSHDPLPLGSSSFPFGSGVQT

[2] = molecular target: Fibroblast growth factor receptor 3 (Homo sapiens, UniProt P22607); assay: Inhibition Assay: FGFR3: The in vitro activity of FGFR3 was determined by assaying the phosphorylation level of the substrate in the kinase reaction, by means of an HTRF kinase assay kit. The reaction buffer comprised the following components: 5-fold diluted Enzymatic buffer/kinase 5×(main ingredient: 50 mM HEPES, pH 7.0), 5 mM MgCl2, 1 mM DTT; the human recombinant FGFR3 catalytic structural domain protein (amino acids 399-806), diluted with the reaction buffer to a 0.3 ng/μL kinase solution; the substrate reaction solution comprised a biotin labeled tyrosine kinase substrate diluted with the reaction buffer to 1000 nM, and 90 μM ATP, and the assay solution comprised an Eu3+ labeled cage-shaped antibody diluted with the assay buffer to 0.125 ng/μL, and 62.5 nM streptavidin labeled XL665.
Chain of Fibroblast growth factor receptor 3 (P22607 whole entry, the tested form may be a part): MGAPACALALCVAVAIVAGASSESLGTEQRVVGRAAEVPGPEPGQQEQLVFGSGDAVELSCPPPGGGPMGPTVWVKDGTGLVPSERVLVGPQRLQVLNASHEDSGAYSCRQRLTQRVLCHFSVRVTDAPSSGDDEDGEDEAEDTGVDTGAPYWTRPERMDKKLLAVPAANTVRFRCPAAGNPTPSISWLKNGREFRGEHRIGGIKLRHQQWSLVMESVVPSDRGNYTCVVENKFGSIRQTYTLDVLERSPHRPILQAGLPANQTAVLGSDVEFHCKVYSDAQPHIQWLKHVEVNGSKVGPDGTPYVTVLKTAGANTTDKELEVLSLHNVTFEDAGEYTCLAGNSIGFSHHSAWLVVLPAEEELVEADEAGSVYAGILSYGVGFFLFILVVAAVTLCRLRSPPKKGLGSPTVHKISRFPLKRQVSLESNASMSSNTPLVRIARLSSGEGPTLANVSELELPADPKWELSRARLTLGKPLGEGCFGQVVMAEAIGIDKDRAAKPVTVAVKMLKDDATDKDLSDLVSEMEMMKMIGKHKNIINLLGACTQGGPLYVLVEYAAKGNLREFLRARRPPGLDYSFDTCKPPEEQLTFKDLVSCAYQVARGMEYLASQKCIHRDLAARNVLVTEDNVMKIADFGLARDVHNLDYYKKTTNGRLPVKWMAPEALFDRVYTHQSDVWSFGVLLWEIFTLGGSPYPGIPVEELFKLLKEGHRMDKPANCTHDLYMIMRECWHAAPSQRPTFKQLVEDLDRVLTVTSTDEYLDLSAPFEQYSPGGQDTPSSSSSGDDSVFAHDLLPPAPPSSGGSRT

[3] = molecular target: Fibroblast growth factor receptor 2 (Homo sapiens, UniProt P21802); assay: Inhibition Assay: FGFR2: The in vitro activity of FGFR2 was determined by assaying the phosphorylation level of the substrate in the kinase reaction, by means of an HTRF kinase assay kit. The reaction buffer comprised the following components: 5-fold diluted Enzymatic buffer/kinase 5× (main ingredient: 50 mM HEPES, pH 7.0), 5 mM MgCl2, 1 mM DTT; the human recombinant FGFR2 catalytic structural domain protein (amino acids 400-821) was commercially available from Beijing Sino Biological Inc., diluted with the reaction buffer to a 0.045 ng/μL kinase solution; the substrate reaction solution comprised a biotin labeled tyrosine kinase substrate diluted with the reaction buffer to 800 nM, and 50 μM ATP, and the assay solution comprised an Eu3+ labeled cage-shaped antibody (Cisbio, Catalog number 61T66KLB) diluted with the assay buffer (Cisbio, Catalog number 62SDBRDF) to 0.125 ng/μL, and 50 nM streptavidin labeled XL665.
Chain of Fibroblast growth factor receptor 2 (P21802 whole entry, the tested form may be a part): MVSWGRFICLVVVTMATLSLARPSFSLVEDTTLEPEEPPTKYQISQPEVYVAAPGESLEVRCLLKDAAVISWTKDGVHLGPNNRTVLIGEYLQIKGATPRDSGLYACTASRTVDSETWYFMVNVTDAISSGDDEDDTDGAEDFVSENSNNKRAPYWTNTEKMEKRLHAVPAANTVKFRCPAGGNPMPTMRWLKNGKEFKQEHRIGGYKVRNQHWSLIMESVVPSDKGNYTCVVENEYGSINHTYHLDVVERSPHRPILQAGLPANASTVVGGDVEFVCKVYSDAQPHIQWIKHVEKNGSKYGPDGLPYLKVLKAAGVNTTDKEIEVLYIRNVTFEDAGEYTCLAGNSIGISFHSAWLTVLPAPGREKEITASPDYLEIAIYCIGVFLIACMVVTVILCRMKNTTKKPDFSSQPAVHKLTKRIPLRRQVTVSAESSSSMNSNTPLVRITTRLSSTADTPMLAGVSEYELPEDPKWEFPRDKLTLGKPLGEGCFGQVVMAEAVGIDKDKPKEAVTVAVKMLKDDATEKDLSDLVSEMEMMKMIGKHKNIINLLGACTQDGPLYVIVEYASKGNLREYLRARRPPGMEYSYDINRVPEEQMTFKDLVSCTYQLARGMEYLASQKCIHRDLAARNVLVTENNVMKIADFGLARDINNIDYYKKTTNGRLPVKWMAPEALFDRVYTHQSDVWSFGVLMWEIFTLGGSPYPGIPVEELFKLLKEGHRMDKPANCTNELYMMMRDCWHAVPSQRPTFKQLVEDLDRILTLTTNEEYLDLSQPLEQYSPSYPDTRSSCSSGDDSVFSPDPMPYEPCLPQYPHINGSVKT

[4] = molecular target: Fibroblast growth factor receptor 1 (Homo sapiens, UniProt P11362); assay: Inhibition Assay: FGFR1: The in vitro activity of FGFR1 was determined by assaying the phosphorylation level of the substrate in the kinase reaction, by means of an HTRF kinase assay kit. The reaction buffer comprised the following components: 5-fold diluted Enzymatic buffer/kinase 5× (main ingredient: 50 mM HEPES, pH 7.0), 5 mM MgCl2, 1 mM DTT; the human recombinant FGFR1 catalytic structural domain protein (amino acids 308-731) was purified by the company itself, diluted with the reaction buffer to a 0.6 ng/μL kinase solution; the substrate reaction solution comprised a biotin labeled tyrosine kinase substrate diluted with the reaction buffer to 400 nM , and 40 μM ATP, and the assay solution comprised an Eu3+ labeled cage-shaped antibody diluted with the assay buffer to 0.125 ng/μL, and 25 nM streptavidin labeled XL665.
Chain of Fibroblast growth factor receptor 1 (P11362 whole entry, the tested form may be a part): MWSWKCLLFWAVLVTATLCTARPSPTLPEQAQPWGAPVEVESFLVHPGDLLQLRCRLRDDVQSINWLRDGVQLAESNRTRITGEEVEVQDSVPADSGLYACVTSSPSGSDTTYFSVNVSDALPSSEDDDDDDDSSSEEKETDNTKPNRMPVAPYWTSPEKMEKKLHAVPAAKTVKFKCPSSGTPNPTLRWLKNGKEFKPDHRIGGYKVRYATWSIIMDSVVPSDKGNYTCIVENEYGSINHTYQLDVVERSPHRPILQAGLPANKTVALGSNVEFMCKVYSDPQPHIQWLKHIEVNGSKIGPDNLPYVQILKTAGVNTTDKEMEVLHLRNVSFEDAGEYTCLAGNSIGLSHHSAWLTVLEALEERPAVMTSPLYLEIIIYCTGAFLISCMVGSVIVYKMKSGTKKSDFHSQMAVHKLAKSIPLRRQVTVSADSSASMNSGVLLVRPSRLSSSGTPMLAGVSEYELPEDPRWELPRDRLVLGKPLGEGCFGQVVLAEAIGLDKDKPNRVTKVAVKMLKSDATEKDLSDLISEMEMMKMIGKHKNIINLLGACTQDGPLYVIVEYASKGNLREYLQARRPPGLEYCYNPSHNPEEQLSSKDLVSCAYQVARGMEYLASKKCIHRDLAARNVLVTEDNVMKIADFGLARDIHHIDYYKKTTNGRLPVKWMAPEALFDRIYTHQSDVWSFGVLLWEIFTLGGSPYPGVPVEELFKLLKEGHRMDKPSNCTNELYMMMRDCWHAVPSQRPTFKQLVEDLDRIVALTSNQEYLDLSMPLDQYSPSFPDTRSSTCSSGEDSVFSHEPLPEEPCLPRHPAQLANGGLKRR

| Structure (SMILES) | IC50 [1] | IC50 [2] | IC50 [3] | IC50 [4] |
| --- | --- | --- | --- | --- |
| COCCNc1cc(NC(=O)N(C)c2ccc(CN3CCOCC3=O)c(C=O)n2)ncc1C#N | < 0.01 µM | > 1 µM | > 1 µM | > 1 µM |
| CC(C)Nc1cc(NC(=O)N(C)c2ccc(CN3CCN(C)CC3=O)c(C=O)n2)ncc1C#N | < 0.01 µM | > 1 µM | > 1 µM | > 1 µM |
| CC(C)Nc1cc(NC(=O)N(C)c2ccc(CN3CCOCC3=O)c(C=O)n2)ncc1C#N | < 0.01 µM | > 1 µM | > 1 µM | > 1 µM |
| CN1CCN(Cc2ccc(N(C)C(=O)Nc3cc(Cl)c(C#N)cn3)nc2C=O)C(=O)C1 |  | > 1 µM | > 1 µM | > 1 µM |
| CC(C)Oc1cc(NC(=O)N(C)c2ccc(CN3CCN(C)CC3=O)c(C=O)n2)ncc1C#N | < 0.01 µM | > 1 µM | > 1 µM | > 1 µM |
| COCCOc1cc(NC(=O)N(C)c2ccc(CN3CCOCC3=O)c(C=O)n2)ncc1C#N | < 0.01 µM | > 1 µM | > 1 µM | > 1 µM |

Second part, the compound after the results:

| IC50 [1] | IC50 [2] | IC50 [3] | IC50 [4] | Structure (SMILES) |
| --- | --- | --- | --- | --- |
| < 0.01 µM | > 1 µM | > 1 µM | > 1 µM | C[C@@H](CO)Oc1cc(NC(=O)N(C)c2ccc(CN3CCN(C)CC3=O)c(C=O)n2)ncc1C#N |
| < 0.01 µM | > 1 µM | > 1 µM | > 1 µM | COC[C@H](C)Oc1cc(NC(=O)N(C)c2ccc(CN3CCN(C)CC3=O)c(C=O)n2)ncc1C#N |
| < 0.01 µM | > 1 µM | > 1 µM | > 1 µM | COC[C@@H](C)Oc1cc(NC(=O)N(C)c2ccc(CN3CCN(C)CC3=O)c(C=O)n2)ncc1C#N |
